Measured values as given in US8232308B2, “Methods for treating a disease in which Rho kinase is involved” (UBE Industries, Ltd., priority 2003, dated 2012).
Counter-ions that a name gives are not always drawn.

Target: T1, activated ROCK II (Rattus norvegicus, UniProt Q62868)
T1 construct: purchased Upstate Biotechnology 14-338
Assay: Test for Evaluation of Inhibiting Activity to Rho Kinase
Assay type: biochemical
Details: S6 Kinase Substrate Peptide, [γ-32P]ATP, 30° C. for 15 minutes, Ki=IC50/(1+S/Km)
Description: In order to find the utility of the present invention compound, a Rho kinase inhibiting activity of the present invention compound was evaluated. The details thereof will be illustrated under the item of “Pharmacological Test (Test for Evaluation of Rho Kinase Inhibiting Activity)” in the Examples which will be mentioned later. The evaluation of the Rho kinase inhibiting activity of the present invention compound was carried out in accordance with the methods mentioned in J. Biol. Chem., 274, 32418 (1999) by Kaibuchi, et al. and mentioned in the instruction manual for use attached to the commercially available activated ROCK II [Upstate Biotechnology, Catalog No. 14-338 (5 units/50 μl)].
A. Test for Evaluation of Inhibiting Activity to Rho Kinase
In order to test the usefulness of the compounds of the present invention as a Rho kinase inhibitor, inhibiting activities of the compounds of the present invention to Rho kinase were evaluated and investigated in accordance with the methods of Kaibuchi, et al. mentioned in J. Biol. Chem., 274, 32418, 1999 and also with the methods mentioned in the instruction manual for use attached to commercially available activated ROCK II [Upstate Biotechnology, Catalog No. 14-338, (5 unite/50 μl)]. With regard to the test compounds, the compounds 5-1 to 5-73 (except the compounds 5-2, 5-9, 5-18, 5-37 and 5-38) were used.
A buffer was prepared so as to make tris(hydroxymethyl)aminomethane (Tris) (pH 7.5), 50 mM, ethyleneglycol bis(β-aminoethyl ether)-N,N,N′,N′-tetraacetic acid (EGTA), 2 mM, ethylenediaminetetraacetic acid (EDTA), 1 mM, magnesium chloride (MgCl2) 5 mM, β-glycerol phosphate, 5 mM, and dithiothreitol (DTT), 2 mM, by mixing them.
A mixed liquid of a 10 mM ATP solution with a commercially available [γ-^32P]ATP solution [NEN, Code No. NEG-002A] was diluted with the buffer to prepare a 300 μM ATP [γ-^32P]ATP solution.
A Commercially Available Activated ROCK II [Upstate Biotechnology, Catalog No. 14-338, (5 Units/50 μl)] was diluted to a concentration of 1/100 with the buffer to prepare an activated ROCK II solution.
A S6 Kinase Substrate Peptide [Upstate Biotechnology, Catalog No. 12-124,] (2 mg) was dissolved in distilled water to prepare a 1 mM substrate solution.
A test compound was dissolved in 10% aqueous dimethyl sulfoxide solution.
1) The test compound solution is placed in a microtube.
2) The 300 μM ATP [γ-^32P]ATP solution is added to the microtube followed by cooling to 4° C.
3) After that, a permanently activated ROCK II solution, 1 mM substrate solution and buffer are added to each microtube in that order, and the whole is mixed and cooled again at 4° C.
4) The microtube is placed in an incubator (30° C.) and the mixture is subjected to reaction for 15 minutes.
5) After cooling to 4° C., a 250 mM phosphoric acid solution (5 μl) is added to each microtube to stop the reaction.
6) The reaction solution (30 μl) is taken out from each microtube and spotted on a filter paper (Whatman P81) so that the reaction product (phosphorylated substrate) is adsorbed to the filter paper.
7) The filter paper is transferred to a beaker in which a 75 mM phosphoric acid solution is placed and shaken for 5 minutes so that unreacted [γ-^32P]AfP is washed out. The washing operation as such is carried out four times.
8) After that, the filter paper is dipped in ethanol to dehydrate and energy amount (radioactivity) of the reaction product adsorbed to the filter paper is measured with a liquid scintillation counter.
The IC50 value was calculated by an XL-fit (IDBS).
The Ki value is calculated by the following formula. S is an ATP concentration contained in the reaction solution while Km is a Michaelis-Menten constant. Ki=IC50/(1+S/Km)

T1 sequence (Q62868 11-550 limits assumed): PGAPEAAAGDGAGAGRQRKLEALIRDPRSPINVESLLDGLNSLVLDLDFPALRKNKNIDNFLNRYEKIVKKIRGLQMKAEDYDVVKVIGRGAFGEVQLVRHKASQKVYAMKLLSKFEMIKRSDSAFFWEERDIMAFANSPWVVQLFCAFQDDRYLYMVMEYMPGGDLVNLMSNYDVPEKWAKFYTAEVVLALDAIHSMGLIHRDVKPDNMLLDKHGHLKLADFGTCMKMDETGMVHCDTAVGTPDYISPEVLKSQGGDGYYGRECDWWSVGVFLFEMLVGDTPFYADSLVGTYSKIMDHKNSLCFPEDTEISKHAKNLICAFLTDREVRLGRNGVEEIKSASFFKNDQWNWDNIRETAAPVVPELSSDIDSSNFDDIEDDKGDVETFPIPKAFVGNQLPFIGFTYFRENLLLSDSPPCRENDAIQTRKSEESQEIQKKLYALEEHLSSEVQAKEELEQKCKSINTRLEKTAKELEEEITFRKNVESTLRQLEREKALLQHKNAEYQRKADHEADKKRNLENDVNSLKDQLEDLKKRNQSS

SMILES | Ki [µM]
CCC(N)(CC)c1ccc(-c2ccc3[nH]ncc3c2OC2CC2)nc1 [Compound 5-71, 5-[5-(1-Amino-1-ethylpropyl)pyridin-2-yl]-4-cyclo-propyloxy-1H-indazole trihydrochloride] | 0.034
CCC(N)(CC)c1ccc(-c2ccc3[nH]ncc3c2OC(F)F)cc1 [Compound 5-72, 5-[4-(1-Amino-1-ethylpropyl)phenyl]-4-difluoro-methoxy-1H-indazole dihydrochloride] | 0.013

Test system: not given
Assay: not given
Details: not given

SMILES | melting point
CC(=O)n1ncc2cc(-c3ccc(C(C)(C)N)cc3)ccc21 (as salt: hydrochloride) [Compound 5-2, 1-Acetyl-5-[4-(1-amino-1-methylethyl)phenyl]-1H-indazole dihydrochloride] | 247 to 250 °C
CC(C)(N)c1ccc(-c2ccc3[nH]ncc3c2)nc1 (as salt: hydrochloride) [Compound 5-3, 5-[5-(1-Amino-1-methylethyl)pyridin-2-yl]-1H-indazole trihydrochloride] | 271 to 273 °C (dec.)
CC(C)(N)c1ccc(-c2ccc3[nH]ncc3c2NCc2ccccc2)cc1 (as salt: hydrochloride) [Compound 5-6, 5-[4-(1-Amino-1-methylethyl)phenyl]-4-benzylamino-1H-indazole dihydrochloride] | 185 to 192 °C (dec.)
COC(=O)c1n[nH]c2ccc(-c3ccc(C(C)(C)N)cc3)cc12 (as salt: hydrochloride) [Compound 5-8, 5-[4-(1-Amino-1-methylethyl)phenyl]-3-methoxy-carbonyl-1H-indazole dihydrochloride] | 264 to 267 °C (dec.)
CC(C)(N)c1ccc(-c2ccc3[nH]nc(C(=O)O)c3c2)cc1 (as salt: hydrochloride) [Compound 5-9, 5-[4-(1-Amino-1-methylethyl)phenyl]-3-carboxy-1H-indazole monohydrochloride] | 274 to 280 °C (dec.)
CC(C)(N)c1ccc(-c2ccc3[nH]nc(C(N)=O)c3c2)cc1 (as salt: hydrochloride) [Compound 5-10, 3-Aminocarbonyl-5-[4-(1-amino-1-methylethyl)phenyl]-1H-indazole monohydrochloride] | 258 to 261 °C (dec.)
CC(C)(N)c1ccc(-c2ccc3[nH]nc(N)c3c2)cc1 (as salt: hydrochloride) [Compound 5-11, 3-Amino-5-[4-(1-amino-1-methylethyl)phenyl]-1H-indazole trihydrochloride] | 220 to 222 °C (dec.)
CC(C)(N)c1ccc(-c2ccc3[nH]nc(C#N)c3c2)cc1 (as salt: hydrochloride) [Compound 5-13, 5-[4-(1-Amino-1-methylethyl)phenyl]-3-cyano-1H-indazole dihydrochloride] | 224 to 227 °C (dec.)
CC(C)(N)c1ccc(-c2ccc3[nH]nc(CO)c3c2)cc1 (as salt: hydrochloride) [Compound 5-14, 5-[4-(1-Amino-1-methylethyl)phenyl]-3-hydroxymethyl-1H-indazole dihydrochloride] | 238 to 242 °C (dec.)
CC(=O)Nc1c(-c2ccc(C(C)(C)N)cc2)ccc2[nH]ncc12 (as salt: hydrochloride) [Compound 5-18, 4-(N-Acetylamino)-5-[4-(1-amino-1-methylethyl)-phenyl]-1H-indazole dihydrochloride] | 218 to 221 °C
CC(C)(N)c1cnc(-c2ccc3[nH]ncc3c2)c(Cl)c1 (as salt: hydrochloride) [Compound 5-27, 5-[5-(1-Amino-1-methylethyl)-3-chloropyridin-2-yl]-1H-indazole trihydrochloride] | 179 to 182 °C
CCc1c(-c2ccc(C(C)(C)N)cn2)ccc2[nH]ncc12 (as salt: hydrochloride) [Compound 5-28, 5-[5-(1-Amino-1-methylethyl)pyridin-2-yl]-4-ethyl-1H-indazole trihydrochloride] | 247 to 255 °C (dec.)
CC(C)(N)c1ccc(-c2ccc3[nH]ncc3c2C2CC2)nc1 (as salt: hydrochloride) [Compound 5-29, 5-[5-(1-Amino-1-methylethyl)pyridin-2-yl]-4-cyclo-propyl-1H-indazole trihydrochloride] | 209 to 213 °C (dec.)
C=Cc1c(-c2ccc(C(C)(C)N)cn2)ccc2[nH]ncc12 (as salt: hydrochloride) [Compound 5-30, 5-[5-(1-Amino-1-methylethyl)pyridin-2-yl]-4-vinyl-1H-indazole trihydrochloride] | 162 to 166 °C (dec.)

Next, values leading:

melting point | SMILES
255 to 261 °C (dec.) | CC(C)(N)c1ccc(-c2ccc3[nH]ncc3c2[N+](=O)[O-])cc1 (as salt: hydrochloride) [Compound 5-4, 5-[4-(1-Amino-1-methylethyl)phenyl]-4-nitro-1H-indazole monohydrochloride]
228 to 235 °C (dec.) | CC(C)(N)c1ccc(-c2ccc3[nH]ncc3c2N)cc1 (as salt: hydrochloride) [Compound 5-5, 4-Amino-5-[4-(1-amino-1-methylethyl)phenyl]-1H-indazole trihydrochloride]
202 to 206 °C (dec.) | CNc1c(-c2ccc(C(C)(C)N)cc2)ccc2[nH]ncc12 (as salt: hydrochloride) [Compound 5-7, 5-[4-(1-Amino-1-methylethyl)phenyl]-4-methylamino-1H-indazole trihydrochloride]
219 to 224 °C (dec.) | CN(C)c1c(-c2ccc(C(C)(C)N)cc2)ccc2[nH]ncc12 (as salt: hydrochloride) [Compound 5-16, 5-[4-(1-Amino-1-methylethyl)phenyl]-4-dimethylamino-1H-indazole trihydrochloride]
269 to 274 °C (dec.) | NCc1ccc(-c2ccc3[nH]ncc3c2[N+](=O)[O-])cc1 (as salt: hydrochloride) [Compound 5-19, 5-[4-(Aminomethyl)phenyl]-4-nitro-1H-indazole dihydrochloride]
234 to 237 °C | Nc1c(-c2ccc(C3(N)CCCC3)cc2)ccc2[nH]ncc12 (as salt: hydrochloride) [Compound 5-21, 4-Amino-5-[4-(1-aminocyclopentyl)phenyl]-1H-indazole dihydrochloride]
197 to 199 °C (dec.) | CCC(N)(CC)c1ccc(-c2ccc3[nH]ncc3c2N)cc1 (as salt: hydrochloride) [Compound 5-22, 4-Araino-5-[4-(1-amino-1-ethylpropyl)phenyl]-1H-indazole trihydrochloride]
188 to 192 °C (dec.) | CN(C)c1c(-c2ccc(CN)cc2)ccc2[nH]ncc12 (as salt: hydrochloride) [Compound 5-23, 5-[4-(Aminomethyl)phenyl]-4-dimethylamino-1H-indazole trihydrochloride]
175 to 178 °C (dec.) | CN(C)c1c(-c2ccc(C3(N)CCCC3)cc2)ccc2[nH]ncc12 (as salt: hydrochloride) [Compound 5-24, 5-[4-(1-Aminocyclopentyl)phenyl]-4-dimethylamino-1H-indazole trihydrochloride]
180 to 182 °C (dec.) | CC(N)c1ccc(-c2ccc3[nH]ncc3c2N(C)C)cc1 (stereo not drawn) (as salt: hydrochloride) [Compound 5-26, 5-[4-(1-Aminoethyl)phenyl]-4-dimethylamino-1H-indazole trihydrochloride]
182 to 184 °C (dec.) | CCN(CC)c1c(-c2ccc(C(C)(C)N)cc2)ccc2[nH]ncc12 (as salt: hydrochloride) [Compound 5-31, 5-[4-(1-Amino-1-methylethyl)phenyl]-4-diethylamino-1H-indazole trihydrochloride]
